Experiment [1] in a line: Antioxidant activity assessed as DPPH radical scavenging activity after 20 to 30 mins. It is filed as functional. In general terms: DPPH is a stable violet radical that fades when it is reduced.
The subject of experiment [2] is Leishmania donovani. As to the kind of experiment: Antileishmanial activity against promastigote form of Leishmania donovani NHOM/IN/80/DD8 assessed as decrease in cell viability after 72 hrs by MTT assay. It is filed as functional, organism-based. The conditions noted are these: NHOM/IN/80/DD8, 72 h.
For experiment [3], the system named is Leishmania donovani. As to the kind of experiment: Potency index, ratio of sodium stibogluconate IC50 to compound IC50 for promastigote form of Leishmania donovani NHOM/IN/80/DD8. It is filed as functional.

≈ marks a conversion by molar mass, not a printed value.

`CCCCc1oc2ccc(/N=C/c3ccc(Cl)cc3)cc2c1C(=O)c1ccc(OC)cc1`: the 50% inhibitory concentration (IC50) (usually the concentration needed to halve the response being measured) was determined as 75.86 µg/mL (≈ 170 µM) in experiment [1] and 372 µg/mL (≈ 834 µM) with Leishmania donovani [2].

Turning to `CCCCc1oc2ccc(/N=C/c3cccc([N+](=O)[O-])c3)cc2c1C(=O)c1ccc(OC)cc1`, the results for the concentration for half-maximal inhibition (IC50) (in experiment [1]; with Leishmania donovani [2]) were 34.16 µg/mL (≈ 74.8 µM) and 103 µg/mL (≈ 226 µM), respectively.

`CCCCc1oc2ccc(/N=C/c3ccc(OC)cc3OC)cc2c1C(=O)c1ccc(OC)cc1`: the IC50 in experiment [1] was 20.53 µg/mL (≈ 43.5 µM); in the experiment on Leishmania donovani [2] it was 52 µg/mL (≈ 110 µM).

For the compound `CCCCc1oc2ccc(/N=C/c3ccccc3)cc2c1C(=O)c1ccc(OC)cc1`, the “Ratio IC50” value in the experiment with Leishmania donovani [3] stood at 2. The half-maximal inhibitory concentration (IC50) in experiment [1] amounted to 34.24 µg/mL (≈ 83.2 µM); in the experiment with Leishmania donovani [2] it was 279 µg/mL (≈ 677 µM).

As for `CCCCc1oc2ccc(/N=C/c3ccc(F)cc3)cc2c1C(=O)c1ccc(OC)cc1`, the IC50 in experiment [1] turned out to be 100.3 µg/mL (≈ 234 µM); in the experiment on Leishmania donovani [2], 77.4 µg/mL (≈ 180 µM).

Regarding `CCCCc1oc2ccc(/N=C/c3ccc(OCC)c(OC)c3)cc2c1C(=O)c1ccc(OC)cc1`, the 50% inhibitory concentration (IC50) was 14.78 µg/mL (≈ 30.4 µM) in experiment [1] and 238 µg/mL (≈ 491 µM) in the experiment on Leishmania donovani [2].

On to `CCCCc1oc2ccc(/N=C/c3ccc(Cl)cc3Cl)cc2c1C(=O)c1ccc(OC)cc1`, for which the results for the concentration for half-maximal inhibition (IC50) (in experiment [1]; with Leishmania donovani [2]) were 2.44 µg/mL (≈ 5.08 µM) and 124 µg/mL (≈ 258 µM), respectively.

As to `CCCCc1oc2ccc(/N=C/c3ccccc3O)cc2c1C(=O)c1ccc(OC)cc1`, the “Ratio IC50” value in the experiment with Leishmania donovani [3] was 4. Also, the IC50 in experiment [1] worked out at 99.43 µg/mL (≈ 233 µM); in the experiment with Leishmania donovani [2], 115 µg/mL (≈ 268 µM).

For `CCCCc1oc2ccc(/N=C/c3ccc(O)cc3)cc2c1C(=O)c1ccc(OC)cc1`, the “Ratio IC50” value in the experiment with Leishmania donovani [3] worked out at 4. Besides, the concentration for half-maximal inhibition (IC50) is 22.79 µg/mL (≈ 53.3 µM) in experiment [1] and 144 µg/mL (≈ 337 µM) with Leishmania donovani [2].

`CCCCc1oc2ccc(/N=C/c3ccc(CC)cc3)cc2c1C(=O)c1ccc(OC)cc1`: the 50% inhibitory concentration (IC50) in experiment [1] came to 3.69 µg/mL (≈ 8.39 µM); with Leishmania donovani [2], 59.3 µg/mL (≈ 135 µM).

Regarding `CCCCc1oc2ccc(/N=C/c3ccc(C#N)cc3)cc2c1C(=O)c1ccc(OC)cc1`, the 50% inhibitory concentration (IC50) was found to be 27.16 µg/mL (≈ 62.2 µM) in experiment [1] and 101 µg/mL (≈ 231 µM) in the experiment with Leishmania donovani [2].

For the compound `CCCCc1oc2ccc(/N=C/c3ccc(O)cc3O)cc2c1C(=O)c1ccc(OC)cc1`, the “Ratio IC50” value with Leishmania donovani [3] is given as 4. The values for the half-maximal inhibitory concentration (IC50) (in experiment [1]; in the experiment with Leishmania donovani [2]) were 7.55 µg/mL (≈ 17 µM) and 109 µg/mL (≈ 246 µM), respectively.

Take `CCCCc1oc2ccc(/N=C/c3ccc([N+](=O)[O-])cc3)cc2c1C(=O)c1ccc(OC)cc1`: the IC50 in experiment [1] was found to be 53.11 µg/mL (≈ 116 µM); in the experiment on Leishmania donovani [2] it was 56 µg/mL (≈ 123 µM).

As to `O=C1O[C@H]([C@@H](O)CO)C(O)=C1O` [ASCORBIC ACID], in experiment [1], the IC50 was 3.31 µg/mL (≈ 18.8 µM).

On to `N=C(N)c1ccc(OCCCCCOc2ccc(C(=N)N)cc2)cc1` [PENTAMIDINE], for which the IC50 in the experiment with Leishmania donovani [2] was found to be 16.1 µg/mL (≈ 47.4 µM).

For the origin of these results see ChEMBL document CHEMBL4184091, “Microwave-assisted synthesis of novel 5-substituted benzylidene amino-2-butyl benzofuran-3-yl-4-methoxyphenyl methanones as antileishmanial and antioxidant agents” (Bioorg Med Chem Lett, 2018).
